Columns and labels:
[1] = molecular target: T1, C-terminal domain (CTD) of human STING (Homo sapiens, UniProt Q86WV6); test: STING binding TR-FRET assay; set-up: purchased CisBio 64BDSTGPEG; details: Human STING WT Binding Kit (CisBio)
Protocol: The affinity of molecules to the C-terminal domain (CTD) of human STING was determined using a commercial Human STING WT Binding Kit (CisBio, cat.# 64BDSTGPEG). In this time-resolved FRET assay, a recombinant human STING protein construct with a His-tag was employed. When bound to STING, a D2-labeled active site probe accepts the 620 nm emission from Anti-HIS-Tb-STING and an increase in fluorescence is measured at 665 nm. Molecules that compete for the probe binding site will result in a low 665 nm signal. The assay was run in CisBio low-volume white 96-well plates (catalog# 66PL96005) containing 5 µL compounds in Diluent Buffer (supplied with the CisBio kit). A solution of 1xSTING, 1x Anti-HIS-Tb and 1X D2-probe in TB detection buffer (kit supplied) was added to the plate. Plates were centrifuged for 2 min at 500 rpm, incubated for 60 min at room temperature in the dark, and then fluorescence emission at 665 nm following 330 nm xenon flash excitation on an BioTek synergy H1 multimode reader (Agilent) was measured. The plC50 values were determined using a standard four parameter curve fit in GraphPad Prism.
Target sequence in this assay (Q86WV6 135-379 limits assumed): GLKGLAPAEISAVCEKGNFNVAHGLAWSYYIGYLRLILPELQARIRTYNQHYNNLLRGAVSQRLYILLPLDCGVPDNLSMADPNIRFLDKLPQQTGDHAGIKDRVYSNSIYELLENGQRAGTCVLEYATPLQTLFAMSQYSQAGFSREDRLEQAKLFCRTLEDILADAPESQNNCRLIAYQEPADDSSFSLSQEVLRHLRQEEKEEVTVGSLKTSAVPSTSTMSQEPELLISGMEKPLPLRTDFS

[2] = molecular target: T1, C-terminal domain (CTD) of human STING; test: STING binding FP assay I; set-up: recombinant human STING protein (155-379); details: 35 nM STING, 4 nM Probe 1
Protocol: The interaction between molecules and the C-terminal domain (CTD) of human STING was evaluated using a competition binding assay. In this assay, recombinant human STING protein (155-379) and a STING binding fluorescent probe were employed. Upon binding of the probe to STING, the rotation of the fluorescent probe is slowed due to the larger molecular size of the protein-bound complex. As a result, emitted light retains its plane of polarization, leading to an increase in fluorescence polarization. Molecules competing for the probe binding site displace the probe, which leads to rapid randomization of the polarization plane of the emitted light and a subsequent decrease in measured fluorescence polarization signal. Change in polarization was measured, allowing a comparative evaluation of the binding affinities of different compounds to the target protein.
The assay was performed in 96-well plates (ThermoFisher, cat.# 237108) containing 100µl : 10 µL test compound in 10% DMSO and buffer A (150 mM NaCl, 50 mM HEPES pH 7.5, 1 mM DTT) + 90 µL prepared master mix solution of: 4 nM fluorescein-labelled STING ligand (Probe 1; synthesis described above) in buffer A + 0.055% Tween-20 (v/v) and 35 nM STING in buffer A. Post mixing, plates were agitated at 600rpm and incubated for 20 min at room temperature. Subsequent measurements of the fluorescence polarization signal were made on a BioTek Synergy-H1 plate reader, using a polarization filter; Exc: 485/20 nm, Em: […]) with a gain-setting of 75. IC50 values were determined using a standard non-linear regression four-parameter curve fit in Graphpad Prism.
Target sequence in this assay (Q86WV6 155-379): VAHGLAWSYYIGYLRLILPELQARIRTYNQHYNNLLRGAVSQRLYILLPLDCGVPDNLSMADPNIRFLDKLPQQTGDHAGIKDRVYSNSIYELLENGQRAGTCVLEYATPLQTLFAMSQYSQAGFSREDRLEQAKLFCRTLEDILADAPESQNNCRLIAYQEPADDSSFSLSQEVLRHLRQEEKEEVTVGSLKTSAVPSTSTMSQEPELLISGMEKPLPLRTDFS

CCOC(=O)COC(CCn1c(=NC(=O)c2cc(C)nn2CC)n(C)c2cc(C(N)=O)ccc21)CCn1c(=NC(=O)c2cc(C)nn2CC)n(C)c2cc(C(N)=O)ccc21 (centres unmarked) [Building Block G-2, Ethyl (3-{5-carbamoyl-2-[(1-ethyl-3-methyl-5-pyrazolyl)carbonylimino]-3-methyl-2,3-dihydro-1H-1,3-benzimidazol-1-yl}-1-(2-{5-carbamoyl-2-[(1-ethyl-3-methyl-5-pyrazolyl)carbonylimino]-3-methyl-2,3-dihydro-1H-1,3-benzimidazol-1-yl}ethyl)propoxy)acetate]
IC50 [1]: 0.452 nM
IC50 [2]: < 30 nM

— patent EP4663632A1, “COMPOUNDS USEFUL FOR THE MODULATION OF THE ACTIVITY OF STING” (Sulis Therapeutics ApS, priority 2024, dated 2025)
